A value given as a limit tells only on which side of the number the result lay.

Broadly, the EC50 is the concentration giving half of the maximal effect. Read a high EC50 as lower potency in that assay.

The assay relates to T1, LXR.
T1 construct: fused on or other part: GST fused to the LBD in the FRET assay
Nature of the assay: Measured EC50 or IC50 for LXR (LXRα and/or LXRβ; assay and subtype not given). The conditions noted are these: IC50 or EC50 class, subtype not specified. The method, then: Measured EC50 or IC50 for LXR, and FXR for Compounds of the Invention
LXR and FXR activities for various compounds of the invention are presented in the following table; those compounds with EC50 or IC50 values <10 μM for at least one of LXRα, LXRβ or FXR are considered to be active. In the following Table, IC50 or EC50 data is represented as follows: A<1 μM, B=1-10 μm, and C>10 μM.
Turning to `CS(=O)(=O)c1cccc(-c2ccc(OCc3nc(C(F)(F)F)cn3-c3c(Cl)cccc3Cl)cc2)c1` [Example 114, 1-(2,6-dichlorophenyl)-2-({[3′-(methylsulfonyl)biphenyl-4-yl]oxy}methyl)-4-(trifluoromethyl)-1H-imidazole], the EC50 is < 1 µM.

In turn, `CC(C)(C(=O)O)c1cccc(-c2ccc(OCc3cc(C(F)(F)F)nn3-c3ccccc3Cl)cc2)c1` [Example 92, 2-[4′-({[1-(2-chlorophenyl)-3-(trifluoromethyl)-1H-pyrazol-5-yl]methyl}oxy)biphenyl-3-yl]-2-methylpropanoic acid] yielded an EC50 of 1 to 10 µM.

`COc1cc(-c2ccc(-c3cccc(S(C)(=O)=O)c3)s2)n(-c2ccccc2Cl)n1` [Example 933, 1-(2-chlorophenyl)-3-(methyloxy)-5-{5-[3-(methylsulfonyl)phenyl]-2-thienyl}-1H-pyrazole]: the EC50 was > 10 µM.

Regarding `CS(=O)(=O)c1ccc(C#Cc2cc(C(F)(F)F)nn2-c2ccccc2Cl)cc1` [Example 109, 1-(2-chlorophenyl)-5-{[4-(methylsulfonyl)phenyl]ethynyl}-3-(trifluoromethyl)-1H-pyrazole], the EC50 was < 1 µM.

Compound `CN1CCCC1c1cn(-c2ccc(-c3cccc(S(C)(=O)=O)c3)cc2)c(C(C)(C)c2ccccc2Cl)n1` (stereo not shown) [Example 979, 2-[1-(2-chlorophenyl)-1-methylethyl]-4-(1-methylpyrrolidin-2-yl)-1-[3′-(methylsulfonyl)biphenyl-4-l]-1H-imidazole] came in with an EC50 of 1 to 10 µM.

For the compound `CS(=O)(=O)c1cccc(-c2ccc(-n3cc(N4CCC(O)C4)nc3-c3ccccc3C(F)(F)F)cc2)c1` (stereo not shown) [Example 1003, 1-(1-(3′-(methylsulfonyl)biphenyl-4-yl)-2-(2-(trifluoromethyl)phenyl)-1H-imidazol-4-yl)pyrrolidin-3-ol], the EC50 was < 1 µM.

On to `CS(=O)(=O)c1cccc(-c2ccc(-n3cc(-c4nccs4)nc3-c3c(Cl)cccc3Cl)cc2)c1` [Example 1014, 2-(2-(2,6-dichlorophenyl)-1-(3′-(methylsulfonyl)biphenyl-4-yl)-1H-imidazol-4-yl)thiazole], for which the EC50 was < 1 µM.

For the compound `CS(=O)(=O)c1cccc(-c2ccc(-n3cc(N4CCC4)nc3-c3ccccc3C(F)(F)F)cc2)c1` [Example 998, 4-(azetidin-1-yl)-1-(3′-(methylsulfonyl)biphenyl-4-yl)-2-(2-(trifluoromethyl)phenyl)-1H-imidazole], the EC50 was < 1 µM.

Take `O=C(Oc1cccc(OCc2cc(C(F)(F)F)nn2-c2ccccc2Cl)c1)c1ccccc1` [Example 95, 3-({[1-(2-chlorophenyl)-3-(trifluoromethyl)-1H-pyrazol-5-yl]methyl}oxy)phenyl benzoate]: the EC50 was > 10 µM.

Consider `Cc1nsc(-c2cn(-c3ccc(-c4cccc(S(C)(=O)=O)c4)cc3)c(-c3ccccc3C(F)(F)F)n2)n1` [Example 1037], for which the EC50 is > 10 µM.

As to `CS(=O)(=O)c1cccc(-c2ccc(-n3cc(-c4nnc(C(F)(F)F)o4)nc3-c3ccccc3Cl)c(Cl)c2)c1` [Example 1025, 2-(1-(3-chloro-3′-(methylsulfonyl)biphenyl-4-yl)-2-(2-chlorophenyl)-1H-imidazol-4-yl)-5-(trifluoromethyl)-1,3,4-oxadiazole], the EC50 is < 1 µM.

As to `Cc1nnc(-c2cn(-c3ccc(-c4cccc(S(C)(=O)=O)c4)cc3)c(-c3ccccc3C(F)(F)F)n2)o1` [Example 1024, 2-methyl-5-(1-(3′-(methylsulfonyl)biphenyl-4-yl)-2-(2-(trifluoromethyl)phenyl)-1H-imidazol-4-yl)-1,3,4-oxadiazole], the EC50 was < 1 µM.

Regarding `Cc1csc(-c2cn(-c3ccc(-c4cccc(S(C)(=O)=O)c4)cc3)c(-c3c(Cl)cccc3Cl)n2)n1` [Example 1013, 2-(2-(2,6-dichlorophenyl)-1-(3′-(methylsulfonyl)biphenyl-4-yl)-1H-imidazol-4-yl)-4-methylthiazole], the EC50 is < 1 µM.

The values are drawn from US7998995B2 (Exelixis Patent Company LLC, priority 2006, dated 2011).
